Broadly, the half-life is the time in which the quantity being followed falls by half. As usually defined, the IC50 is the concentration that inhibits the measured activity by half. A lower IC50 goes with greater potency.

We go through 4 molecules from article PMC12806454 (Quantitative Biology, 2024).

SMILES strings stand for the structures.

The conditions of data set [1]: rat, in vivo, iv; cited from earlier work.
The target of another data set is Mpro of NL63 (Human coronavirus NL63, UniProt P0C6X5). The experiment in a line: biochemical.
Sequence of Mpro of NL63 (P0C6X5 2940-3242): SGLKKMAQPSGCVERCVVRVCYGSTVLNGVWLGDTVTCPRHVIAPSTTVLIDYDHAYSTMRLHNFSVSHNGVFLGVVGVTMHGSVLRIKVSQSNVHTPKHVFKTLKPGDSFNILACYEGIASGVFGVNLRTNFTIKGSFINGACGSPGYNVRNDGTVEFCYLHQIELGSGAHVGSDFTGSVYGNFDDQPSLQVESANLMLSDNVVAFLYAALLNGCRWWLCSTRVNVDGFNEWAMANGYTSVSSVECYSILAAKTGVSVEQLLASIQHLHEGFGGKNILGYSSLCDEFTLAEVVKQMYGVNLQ
The target of another data set is Mpro of HKU1 (Human coronavirus HKU1, UniProt P0C6X2). Kind of data set: biochemical.
Sequence of Mpro of HKU1 (P0C6X2 3335-3637): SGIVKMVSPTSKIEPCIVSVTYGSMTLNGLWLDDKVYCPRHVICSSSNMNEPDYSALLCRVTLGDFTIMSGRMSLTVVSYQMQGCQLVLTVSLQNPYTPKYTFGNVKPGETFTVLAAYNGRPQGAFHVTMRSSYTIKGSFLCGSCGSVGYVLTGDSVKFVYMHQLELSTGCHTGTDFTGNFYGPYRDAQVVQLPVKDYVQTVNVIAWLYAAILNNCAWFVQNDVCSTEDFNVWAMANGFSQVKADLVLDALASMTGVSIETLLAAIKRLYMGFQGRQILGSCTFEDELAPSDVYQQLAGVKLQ
The next data set deals with Mpro of SARS-CoV-1 (Severe acute respiratory syndrome coronavirus, UniProt P0C6X7). Kind of data set: biochemical.
A further data set concerns the target Mpro of MERS (Middle East respiratory syndrome-related coronavirus, UniProt K9N7C7). Kind of data set: biochemical.
Another data set concerns the target Mpro of OC43 (Human coronavirus OC43, UniProt P0C6X6). The experiment in a line: biochemical.
For a further data set, the target named is Mpro of 229E (Human coronavirus 229E, UniProt P0C6X1). Kind of data set: biochemical.
Sequence of Mpro of 229E (P0C6X1 2966-3267): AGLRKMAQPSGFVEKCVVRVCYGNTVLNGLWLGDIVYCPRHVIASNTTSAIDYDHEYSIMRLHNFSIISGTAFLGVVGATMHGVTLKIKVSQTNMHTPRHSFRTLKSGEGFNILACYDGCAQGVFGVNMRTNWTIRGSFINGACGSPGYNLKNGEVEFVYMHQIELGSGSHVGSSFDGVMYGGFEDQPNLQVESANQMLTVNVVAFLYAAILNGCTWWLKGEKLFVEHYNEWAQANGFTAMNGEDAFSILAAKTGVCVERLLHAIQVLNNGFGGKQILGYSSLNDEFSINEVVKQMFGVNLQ

Sequence of Mpro of OC43 (P0C6X6 3247-3549): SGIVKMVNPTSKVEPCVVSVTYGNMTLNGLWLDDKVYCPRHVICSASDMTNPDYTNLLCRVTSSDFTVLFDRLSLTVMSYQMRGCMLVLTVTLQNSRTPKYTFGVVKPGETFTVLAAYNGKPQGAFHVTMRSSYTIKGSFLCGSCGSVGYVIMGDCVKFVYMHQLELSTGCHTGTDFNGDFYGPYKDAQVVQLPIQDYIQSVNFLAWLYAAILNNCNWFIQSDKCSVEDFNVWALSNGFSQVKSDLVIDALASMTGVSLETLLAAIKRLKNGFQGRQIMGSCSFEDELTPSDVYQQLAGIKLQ
Sequence of Mpro of MERS (K9N7C7 3248-3553 limits assumed): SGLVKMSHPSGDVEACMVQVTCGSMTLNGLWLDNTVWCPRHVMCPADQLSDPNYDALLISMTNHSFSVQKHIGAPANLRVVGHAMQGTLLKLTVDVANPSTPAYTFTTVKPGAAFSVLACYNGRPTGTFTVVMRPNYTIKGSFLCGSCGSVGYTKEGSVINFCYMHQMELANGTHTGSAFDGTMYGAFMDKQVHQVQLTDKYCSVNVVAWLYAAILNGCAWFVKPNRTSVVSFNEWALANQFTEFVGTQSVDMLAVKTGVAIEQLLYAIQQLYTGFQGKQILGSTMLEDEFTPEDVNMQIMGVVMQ

Consider `Cn1cnc(Cn2c(=O)[nH]/c(=N\c3cc4cn(C)nc4cc3Cl)n(Cc3cc(F)c(F)cc3F)c2=O)n1` [Ensitrelvir, ensitrelvir], for which, in data set [1], the half-life is on record as 2.4 h.
Turning to `CC(C)CC(NC(=O)OCc1ccccc1)C(=O)NC(CC1CCNC1=O)C(O)S(=O)(=O)O` (centres unmarked) [GC376], the results for the concentration for half-maximal inhibition (IC50) against Mpro of NL63 and at Mpro of HKU1 were 438 nM and 73.3 nM, respectively.
As to `O=C(NC1CCCC1)C(=O)[C@H](C[C@@H]1CCNC1=O)NC(=O)[C@@H]1[C@H]2CCC[C@H]2CN1C(=O)[C@@H](NC(=O)C(F)(F)F)C1CCCCC1` [Leritrelvir, leritrelvir], the IC50 was found to be 272 nM at Mpro of NL63; 73 nM at Mpro of SARS-CoV-1; 945 nM at Mpro of MERS; 53.2 nM against Mpro of OC43; 101 nM at Mpro of 229E; 52.3 nM at Mpro of HKU1. Also, in data set [1], the half-life is reported as 4.8 h.
With `CC(C)(C)[C@H](NC(=O)C(F)(F)F)C(=O)N1C[C@H]2[C@@H]([C@H]1C(=O)N[C@H](C#N)C[C@@H]1CCNC1=O)C2(C)C` [Nirmatrelvir, nirmatrelvir], the half-life in data set [1] is 0.5 h.
